Assay results published in publication PMC6100582 (Molecules : A Journal of Synthetic Chemistry and Natural …, 2018).
Where two headings read alike, the source gives them in different places.

What was measured:
[1] = test system: Z-138 (non-Hodgkin lymphoma); experiment: Antiproliferative screening (cytostatic activity); type: cell-based; conditions: Homo sapiens, Z-138; 72 h, IncuCyte imaging; read-out: IC50 Z-138
Outline: (§1)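 Cells in medium with 10% FBS, seeded and left overnight, then exposed to test compounds at four concentrations from 100 to 0.8 µM. Growth followed by imaging every 3 h, one field per well at 10×. Duplicate data points averaged.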

MM.1S (multiple myeloma) = experiment: Antiproliferative screening (cytostatic activity); type: cell-based; conditions: Homo sapiens, MM1.S; 72 h, IncuCyte imaging; read-out: IC50 MM.1S
Outline: as §1

[2] = test system: NCI-H460 (lung carcinoma); experiment: Antiproliferative screening (cytostatic activity); type: cell-based; conditions: Homo sapiens, NCI-H460; 72 h, IncuCyte imaging; read-out: IC50 NCI-H460
Outline: as §1

[3] = test system: Capan-1 (pancreatic adenocarcinoma); experiment: Antiproliferative screening (cytostatic activity); type: cell-based; conditions: Homo sapiens, CAPAN-1; 72 h, IncuCyte imaging; read-out: IC50 Capan-1
Outline: as §1

[4] = test system: K-562 (chronic myeloid leukemia); experiment: Antiproliferative screening (cytostatic activity); type: cell-based; conditions: Homo sapiens, K562; 72 h, IncuCyte imaging; read-out: IC50 K-562
Outline: as §1

[5] = test system: HCT-116 (colorectal carcinoma); experiment: Antiproliferative screening (cytostatic activity); type: cell-based; conditions: Homo sapiens, HCT-116; 72 h, IncuCyte imaging; read-out: IC50 HCT-116
Outline: as §1

Sindbis Virus = experiment: microbe, parasite or virus in culture; type: cell-based; conditions: Vero
Vero cell cultures = conditions: Vero cells, microscopically detectable alteration of cell morphology; unit not printed in head (EC50 columns µM)
in vitro = conditions: African green monkey
Punta Toro Virus = experiment: microbe, parasite or virus in culture; type: cell-based; conditions: Vero cells
[6] = test system: broad variety of viral infections; experiment: Antiviral evaluation, broad variety of viruses; type: cell-based; conditions: Vero cells
[7] = test system: Escherichia coli ATCC 10536; experiment: Minimum biofilm eradication assay; type: cell-based
Procedure: (§2) MBECs of fumardiamides 4a–f and succindiamides 5a–f were determined as follows. Each well (96-well plate) was filled with 100 µl of bacterial (10^7 CFU/mL) or yeast (5 × 10^6 CFU/mL) suspension. When the inhibition of yeast biofilm formation was tested, the wells were pre-treated with fetal bovine serum (FBS) (250 µl per well). Negative controls contained broth only. Positive controls were performed using standard antimicrobial drugs gentamycin (Gen) and Amph, respectively. […] Following incubation period, each well was aspirated, washed three times and vigorously shaken to remove all non-adherent bacteria/yeast. The remaining attached cells were fixed with methanol (15 min) and the plates were left to dry overnight. Formed biofilm was stained with crystal violet (1%, 5 min). Excess stain was rinsed by placing the plate under running tap water and the plates were left to dry. Adherent cells were solubilized using ethanol. The absorbance was read at 570 nm. The MBEC value represents the lowest dilution of a compound at which bacteria fail to grow.

[8] = test system: Bacillus subtilis ATCC 6633; experiment: Minimum biofilm eradication assay; type: cell-based
Procedure: as §2

[9] = test system: Salmonella enteritidis MFBF 11945; experiment: Minimum biofilm eradication assay; type: cell-based
Procedure: as §2

[10] = test system: Acinetobacter baumannii MFBF 10913; experiment: Minimum biofilm eradication assay; type: cell-based
Procedure: as §2

[11] = test system: Serratia marcescens ATCC 10905; experiment: Minimum biofilm eradication assay; type: cell-based
Procedure: as §2

[12] = test system: Staphylococcus aureus ATCC 6538; experiment: Minimum biofilm eradication assay; type: cell-based
Procedure: as §2

[13] = test system: Bacillus cereus ATCC 11778; experiment: Minimum biofilm eradication assay; type: cell-based
Procedure: as §2

[14] = test system: Proteus mirabilis MFBF 10430; experiment: Minimum biofilm eradication assay; type: cell-based
Procedure: as §2

[15] = test system: Pseudomonas aeruginosa ATCC 27853; experiment: Minimum biofilm eradication assay; type: cell-based
Procedure: as §2

[16] = test system: Enterococcus faecalis ATCC 29212; experiment: Minimum biofilm eradication assay; type: cell-based
Procedure: as §2

[17] = test system: Candida albicans ATCC 90028; experiment: In vitro antifungal susceptibility testing (MIC determination); type: cell-based; conditions: ATCC90028
[18] = test system: Streptococcus pneumonia MFBF 10373; experiment: Minimum biofilm eradication assay; type: cell-based, Streptococcus pneumoniae
Procedure: as §2

For `COc1cc(NC(C)CCCNC(=O)/C=C/C(=O)Nc2cccc(C(F)(F)F)c2)c2ncccc2c1` (stereo not drawn) [Compound 4e, (2E)-N′-{4-[(6-Methoxyquinolin-8-yl)amino]pentyl}-N-[3-(trifluoromethyl)phenyl]but-2-enediamide], the melting point was 149 to 150 °C, the IC50 [1] was 68.4 µM and the IC50 (MM.1S (multiple myeloma)) was > 100 µM. For the same compound, the IC50 [2] was 34.2 µM, the IC50 [3] was 56.5 µM and the IC50 [4] was 71.2 µM. For the same compound, the IC50 [5] was > 100 µM, the EC50 (Sindbis Virus; read-out: EC50 Sindbis Virus, MTS) was 5.3 µM and the EC50 (Sindbis Virus; read-out: EC50 Sindbis Virus, Visual CPE Score) was 4.2 µM. The “Cytotoxicity MCC (minimum cytotoxic concentration)” value (Vero cell cultures) was 10, the CC50 (in vitro) was > 50 µg/mL and the EC50 (Punta Toro Virus; MTS, read-out: EC50 Punta Toro Virus, MTS) was 5.4 µM. For the same compound, the EC50 (Punta Toro Virus; visual CPE score, read-out: EC50 Punta Toro Virus, Visual CPE Score) was > 50 µM, the “selectivity index (SI), MCC and EC50 ratio” value [6] was 1.8–3.7 and the EC50 ([6]; reovirus-1, sindbis virus and Punta Toro virus, read-out: EC50 (range over viruses)) was 3.1 to 5.5 µM. The MBEC [7] was 50 µg/mL, the MBEC [8] was >100 µg/mL and the MBEC [9] was >100 µg/mL. For the same compound, the MBEC [10] was 100 µg/mL, the MBEC [11] was >100 µg/mL and the MBEC [12] was 50 µg/mL. The MBEC [13] was >100 µg/mL, the MBEC [14] was >100 µg/mL and the MBEC [15] was 50 µg/mL. The MBEC [16] was 50 µg/mL, the MIC [17] was > 100 µg/mL and the MBEC [18] was 50 µg/mL.
